Source: patent publication US5488060A, “Substituted thiadiazoles, compositions containing them and their use as antimicrobial and marine antifouling agents” (The Dow Chemical Company, priority 1994, dated 1996)
Converted amounts (≈) assume the structure as drawn. Like-named read-outs stand apart in the source and are kept apart here.

What was measured:
Assay type in all cases: cell-based
Escherichia coli (Ec) = test: Minimum inhibitory concentration (MIC) in nutrient agar, Escherichia coli
Outline: (§1)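 MIC is determined by agar incorporation into neutral and alkaline nutrient agar, with compound at final 500 to 1.0 ppm added from a 1% acetone–water solution. Plates are inoculated with 10^8 CFU/mL cultures and read after 48 h at 30° C.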

[1] = system: Penicillium chrysogenum (Pc); test: Minimum inhibitory concentration (MIC) in malt yeast agar, Penicillium chrysogenum
Outline: (§2)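 Growth is scored at 30 °C after 72 h for fungi and 48 h for yeast on malt yeast agar (pH 5.5) containing compound at final levels from 500 down to zero ppm. Organisms are grown 7 days at 30 °C, suspended in saline with octylphenoxy polyethoxy ethanol, and diluted 1:9 before replicator inoculation.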

[2] = system: Salmonella choleraesuis (Se); test: Minimum inhibitory concentration (MIC) in nutrient agar, Salmonella choleraesuis; settings: Salmonella enterica, 48 h
Outline: as §1

Trichoderma viride (Tv) = test: Minimum inhibitory concentration (MIC) in malt yeast agar, Trichoderma viride; settings: pH 5.5; malt yeast agar, 30° C., 72 hours for fungi; read-out: Minimum Inhibitory Concentration, Tv
Outline: as §2

[3] = system: Pseudomonas aeruginosa (Pa); test: Minimum inhibitory concentration (MIC) in nutrient agar, Pseudomonas aeruginosa; settings: 30° C., 48 hours, read-out: Minimum Inhibitory Concentration, Pa
Outline: as §1

[4] = system: Klebsiella pneumoniae (Kp); test: Minimum inhibitory concentration (MIC) in nutrient agar, Klebsiella pneumoniae
Outline: as §1

[5] = system: Pseudomonas aeruginosa (PRD-10); test: Minimum inhibitory concentration (MIC) in nutrient agar, Pseudomonas aeruginosa PRD-10; settings: 48 h
Outline: as §1

[6] = system: Staphylococcus aureus (Sa); test: Minimum inhibitory concentration (MIC) in nutrient agar, Staphylococcus aureus
Outline: as §1

Fusarium oxysporum (Fo) = test: Minimum inhibitory concentration (MIC) in malt yeast agar, Fusarium oxysporum; settings: pH 5.5; malt yeast agar, 30° C., 72 hours for fungi; read-out: Minimum Inhibitory Concentration, Fo
Outline: as §2

Aspergillus niger (An) = test: Minimum inhibitory concentration (MIC) in malt yeast agar, Aspergillus niger
Outline: as §2

Bacillus subtilis (Bs) = test: Minimum inhibitory concentration (MIC) in nutrient agar, Bacillus subtilis
Outline: as §1

[7] = system: Enterobacter aerogenes (Ea); test: Minimum inhibitory concentration (MIC) in nutrient agar, Enterobacter aerogenes; settings: Klebsiella aerogenes, 48 h
Outline: as §1

[8] = system: Saccharomyces cerevisiae (Sc); test: Minimum inhibitory concentration (MIC) in malt yeast agar, Saccharomyces cerevisiae
Outline: as §2

Candida albicans (Ca) = test: Minimum inhibitory concentration (MIC) in malt yeast agar, Candida albicans; settings: pH 5.5; malt yeast agar, 30° C., 48 hours for yeast; read-out: Minimum Inhibitory Concentration, Ca
Outline: as §2

Proteus vulgaris (Pv) = test: Minimum inhibitory concentration (MIC) in nutrient agar, Proteus vulgaris; settings: 48 h
Outline: as §1

[9] = system: Aureobasidium pullulan (Ap); test: Minimum inhibitory concentration (MIC) in malt yeast agar, Aureobasidium pullulan
Outline: as §2

[10] = 48 h, pH 6.8, read-out: Minimum Inhibitory Concentration, Ec
[11] = 48 h, pH 8.2, read-out: Minimum Inhibitory Concentration, Ec
[12] = pH 5.5, malt yeast agar, 30° C., 72 hours for fungi, read-out: Minimum Inhibitory Concentration, PC
[13] = pH 6.8, read-out: Minimum Inhibitory Concentration, SC
[14] = pH 8.2, read-out: Minimum Inhibitory Concentration, SC
[15] = 48 h, pH 8.2, read-out: Minimum Inhibitory Concentration, Kp
[16] = pH 6.8, nutrient agar, 30° C., 48 hours, read-out: Minimum Inhibitory Concentration, Kp
[17] = pH 6.8, read-out: Minimum Inhibitory Concentration, PRD
[18] = pH 8.2, read-out: Minimum Inhibitory Concentration, PRD
[19] = 48 h, pH 8.2, read-out: Minimum Inhibitory Concentration, Sa
[20] = pH 6.8, nutrient agar, 30° C., 48 hours, read-out: Minimum Inhibitory Concentration, Sa
[21] = 48 h, pH 8.2, read-out: Minimum Inhibitory Concentration, Bs
[22] = pH 6.8, nutrient agar, 30° C., 48 hours, read-out: Minimum Inhibitory Concentration, Bs
[23] = pH 6.8, read-out: Minimum Inhibitory Concentration, Ea
[24] = pH 8.2, read-out: Minimum Inhibitory Concentration, Ea
[25] = pH 5.5, malt yeast agar, 30° C., 48 hours for yeast, read-out: Minimum Inhibitory Concentration, SC
[26] = pH 6.8, read-out: Minimum Inhibitory Concentration, Pv
[27] = pH 8.2, read-out: Minimum Inhibitory Concentration, Pv
[28] = 72 h, pH 5.5, read-out: Minimum Inhibitory Concentration, An
[29] = pH 5.5, read-out: Minimum Inhibitory Concentration, Ap

Row | Compound | MIC (Escherichia coli (Ec); [10]) [µg/mL] | MIC (Escherichia coli (Ec); [11]) [µg/mL] | MIC [1, 12] [µg/mL] | MIC [2, 13] [µg/mL] | MIC [2, 14] [µg/mL] | MIC (Trichoderma viride (Tv)) [µg/mL] | MIC ([3]; pH 6.8, nutrient agar) [µg/mL] | MIC ([3]; pH 8.2, nutrient agar) [µg/mL] | MIC [4, 15] [µg/mL] | MIC [4, 16] [µg/mL] | MIC [5, 17] [µg/mL] | MIC [5, 18] [µg/mL] | MIC [6, 19] [µg/mL] | MIC [6, 20] [µg/mL] | MIC (Fusarium oxysporum (Fo)) [µg/mL] | MIC [7, 23] [µg/mL] | MIC [7, 24] [µg/mL] | MIC (Candida albicans (Ca)) [µg/mL] | MIC (Proteus vulgaris (Pv); [26]) [µg/mL] | MIC (Proteus vulgaris (Pv); [27]) [µg/mL] | further results
1 | N#CSCSc1nsnc1-c1ccc([N+](=O)[O-])cc1 [Example XXIX, 4-(4-Nitrophenyl)-3-thiocyanatomethylthio-1,2,5-thiadiazole] | 500 (≈ 1610 µM) | 500 (≈ 1610 µM) | 9 (≈ 29 µM) | 500 (≈ 1610 µM) | > 500 | 9 (≈ 29 µM) | 500 (≈ 1610 µM) | > 500 | > 500 | 500 (≈ 1610 µM) | 500 (≈ 1610 µM) | > 500 | 500 (≈ 1610 µM) | 500 (≈ 1610 µM) | 9 (≈ 29 µM) | 500 (≈ 1610 µM) | > 500 | 9 (≈ 29 µM) | 500 (≈ 1610 µM) | > 500 | MIC (Aspergillus niger (An); pH 5.5, malt yeast agar, 30° C., 72 hours for fungi, read-out: Minimum Inhibitory Concentration, An): 9 µg/mL (≈ 29 µM); MIC (Bacillus subtilis (Bs); [21]): 500 µg/mL (≈ 1610 µM); MIC (Bacillus subtilis (Bs); [22]): 50 µg/mL (≈ 161 µM); MIC [8, 25]: 9 µg/mL (≈ 29 µM); MIC ([9]; pH 5.5, malt yeast agar, 30° C., read-out: Minimum Inhibitory Concentration, Ap): > 500 µg/mL
2 | CS(=O)(=O)c1ccc(-c2nsnc2SCSC#N)cc1 [Example XXV, 4-(4-Methylsulfonylphenyl)-3-thiocyanatomethylthio-1,2,5-thiadiazole] | 500 (≈ 1460 µM) | 500 (≈ 1460 µM) | 9 (≈ 26.2 µM) | 500 (≈ 1460 µM) | > 500 | > 500 | 500 (≈ 1460 µM) | > 500 | > 500 | 500 (≈ 1460 µM) | 500 (≈ 1460 µM) | > 500 | 500 (≈ 1460 µM) | 500 (≈ 1460 µM) | > 500 | 500 (≈ 1460 µM) | > 500 | 500 (≈ 1460 µM) | 500 (≈ 1460 µM) | > 500 | MIC (Aspergillus niger (An); [28]): 250 µg/mL (≈ 728 µM); MIC (Bacillus subtilis (Bs); 48 h, pH 6.8, read-out: Minimum Inhibitory Concentration, Bs): 500 µg/mL (≈ 1460 µM); MIC (Bacillus subtilis (Bs); [21]): 500 µg/mL (≈ 1460 µM); MIC [8, 25]: 500 µg/mL (≈ 1460 µM); MIC [9, 29]: 250 µg/mL (≈ 728 µM)
3 | N#CSCSc1nsnc1-c1ccc(C(F)(F)F)cc1 [Example XXVI, 4-(4-Trifluoromethyl-phenyl)-3-thiocyanatomethylthio-1,2,5-thiadiazole] | 500 (≈ 1500 µM) | – | – | 500 (≈ 1500 µM) | > 500 | > 500 | 500 (≈ 1500 µM) | > 500 | > 500 | 500 (≈ 1500 µM) | 500 (≈ 1500 µM) | > 500 | – | 25 (≈ 75 µM) | > 500 | 500 (≈ 1500 µM) | > 500 | > 500 | 500 (≈ 1500 µM) | > 500 | MIC (Escherichia coli (Ec); pH 8.2, nutrient agar, 30° C., 48 hours, read-out: Minimum Inhibitory Concentration, Ec): 250 µg/mL (≈ 750 µM); MIC ([1]; 72 h, pH 5.5, read-out: Minimum Inhibitory Concentration, PC): 2.5 µg/mL (≈ 7.5 µM); MIC ([6]; pH 8.2, nutrient agar, 30° C., 48 hours, read-out: Minimum Inhibitory Concentration, Sa): 25 µg/mL (≈ 75 µM); MIC (Aspergillus niger (An); [28]): 25 µg/mL (≈ 75 µM); MIC (Bacillus subtilis (Bs); [22]): 9 µg/mL (≈ 27 µM); MIC (Bacillus subtilis (Bs); pH 8.2, nutrient agar, 30° C., 48 hours, read-out: Minimum Inhibitory Concentration, Bs): 9 µg/mL (≈ 27 µM); MIC ([8]; 48 h, pH 5.5, read-out: Minimum Inhibitory Concentration, SC): 2.5 µg/mL (≈ 7.5 µM); MIC [9, 29]: 5 µg/mL (≈ 15 µM)
